# Experimental data as given in US10370364B1, “Substituted chromenes for treatment of fibrosis or non-alcoholic steatohepatitis” (OSTEONEUROGEN INC., priority 2018, dated 2019).
# Key:
# [1] = Solubility in phosphate buffer (pH 7.4); settings: phosphate buffer pH 7.4, 1 mg/ml added, 16 hours, HPLC-UV
# Procedure: The compound of the present invention was added to phosphate buffer (pH 7.4) at a concentration of 1 mg/ml and stirred. After 16 hours, the sample was filtered through a filter, and the supernatant was analyzed by HPLC-UV, thereby determining the content of compound dissolved.
# C57BL/6 mice = assay: Bleomycin-induced pulmonary fibrosis animal model; type: in vivo
# From the text: 5-week-old male C57BL/6 mice (weighed 18.2 to 20.5 g) (KOATECH, Korea) were used as experimental animals and divided into several groups, each consisting of 5 animals.
# The experimental animals were housed in a housing box having a size of 369 L×156 W×132H (mm) (EU, USA, UK GL compliance) made of a polysulfone material in a SPF (Specific Pathogen Free) and BSL (Bio Safety Level) 2 grade facility. The number of animals in each housing box was 2 to 3 during the period of quarantine and acclimatization and was also 2 to 3 during the experimental period, and the housing conditions were set to a temperature of 22±2° C., a relative humidity of 50.0±15.0%, a ventilation cycle of 10 to 20 times/hr, a light-dark cycle (a photoperiod) of 12 hr/day (07:00 to 19:00), and an illumination intensity of 150 to 300 Lux.
# Pulmonary fibrosis was induced by injecting a bleomycin solution directly into the lungs via the trachea according to the intratracheal instillation (IT) method of Kremer, Laxer and Berkman et al. Specifically, C57BL/6J mice were anesthetized through inhalation with 70% N2O and 30% O2 gas and 1.5% isoflurane, and the skin of the anterior neck thereof was excised and the organs under the muscle thereof were exposed and then carefully excised using ophthalmic surgical scissors. 50 μL of a solution of bleomycin in distilled water was injected directly into the lungs all at once via the excised organ by use of a 1 mL syringe fitted with a 19-gauge injection needle having a blunt tip. Immediately after the injection, the excised skin of the anterior neck was sutured and the mice were allowed to recover from the anesthetic, and then housed in a general housing cage. The administration of bleomycin was performed using a visual instillobot, and bleomycin-HCl 40 μg/50 μL was administered once and a pulmonary fibrosis induction period of 12 days was set.
# The compound of the present invention was used after dissolution in 30% HPCD aqueous solution (Formulation Example 5), and the dose for each individual was calculated based on the recent body weight thereof. 12 Days after the administration of bleomycin, the compound of the present invention was administered once a day (5 times a week) for 2 weeks. As a control, pirfenidone which is a therapeutic agent for idiopathic pulmonary fibrosis was administered in the same manner.
# On 15 days after administration of the compound, the mice were sacrificed, and then the right lung of each mouse was dissected and the weight thereof was measured. […] In particular, it is noted that the inhibitory effect of the compound in the group administered at 10 mpk was the highest compared to that in the group administered at 50 or 100 mpk and was also higher than that in the group administered with pirfenidone 100 mpk.
# The amounts of hydroxyproline (HP) and collagen in the dissected right lung were measured using a known method.
# Histopathology collagen morphometry of the dissected left lung tissue was performed using a known method (calculating the area of collagen in an optical image obtained by Sirius red staining of the lung tissue sample).
# The pathological conditions of the left lung tissue dissected using a known method were examined by H&E and Sirius Red staining. […] In particular, it is noted that the inhibitory effect of the compound in the group administered at 10 mpk was the highest compared to that in the groups administered at other concentrations.
# In order to examine the effect of each treatment in this Experiment on the liver, the liver of each of the sacrificed mice was dissected, and the pathological conditions of the liver tissue were examined by H&E staining.
# [2] = Concentration of compound in plasma and lung of bleomycin fibrotic mice; type: in vivo; settings: 1 hour after final administration; pirfenidone 100 mpk, Compound 1 10-100 mpk PO
# Procedure: The amounts of the compound present in the plasma and lung of each of the sacrificed mice (finally administered with each compound at 1 hour before sacrifice) were measured. […] If it is attempted to formulate the compound of the present invention in various manners, it is expected that the compound of the present invention can effectively treat fibrosis even at lower concentrations.
# STAM mice = assay: Non-alcoholic steatohepatitis animal model (STAM mice), NAFLD activity score; type: in vivo; settings: 30 mpk oral
# Procedure: STAM mice (SMC Laboratories, Inc., Japan), which are non-alcoholic steatohepatitis animal models, were used as experimental animals. These animal models were administered with streptozotocin immediately after birth, and fed with high-fat-diet after 3 weeks. Then, in the mouse model, non-alcoholic steatohepatitis occurred at 6 to 9 weeks, and liver fibrosis, cirrhosis and liver cancer occurred within 9 to 12 weeks.
# Over 6 to 9 weeks after administration of streptozotocin, the compound of the present invention, dissolved in a mixture solution of Tween80 and 0.5% CMC aqueous solution (1:99 (v/v)) (Formulation Example 2), was orally administered to the animal models once a day (five times a week). As controls, telmisartan and OCA (obeticholic acid) were administered in the same manner.
# At […] after administration of streptozotocin (a time point after 3-week administration of the compound), the mice were sacrificed, the liver of each mouse was dissected, the invasion of inflammatory cells was observed by […] of the liver tissue, and fibrosis of the liver tissue was observed by Sirius Red staining (see FIG. 42). In addition, the degrees of inflammation, fibrosis, liver cell ballooning and adipose accumulation observed were measured, data integration was performed, and the NAFLD (nonalcoholic fatty liver disease) activity score was statistically processed by t-test.
structure (smiles),measurement,setting,value
"CC/C(=C(/CC)c1ccc(O)cc1)c1ccc(O)cc1 [Diethyl stilbesterol, reference compound]",Solubility,[1],4.50 µg/mL
"Cc1ccc(=O)n(-c2ccccc2)c1 [Pirfenidone, reference compound]",Protection Collagen %,C57BL/6 mice; 100 mpk PO,34%
same,"Mean Collagen % (histopathology collagen morphometry, left lung)","C57BL/6 mice; 100 mpk PO, Sirius red",4.1%
same,"pathological condition of liver tissue, H&E staining","C57BL/6 mice; bleomycin mice, 100 mpk",showed hepatotoxic symptoms
same,concentration of the compound in the lung,[2],high
same,concentration of the compound in the plasma,[2],high
"CCCc1nc2c(C)cc(-c3nc4ccccc4n3C)cc2n1Cc1ccc(-c2ccccc2C(=O)O)cc1 [telmisartan, reference compound]",NAFLD activity score (t-test),STAM mice,statistically significant anti-NASH effects
